The assay addresses α7-subtype of nicotinic receptors (Rattus norvegicus, UniProt Q05941). In words: biochemical. Format: binding.

SMILES strings stand for the structures. Structures can show the parent of a compound that is named as a salt.

Sequence of α7-subtype of nicotinic receptors (Q05941 23-502): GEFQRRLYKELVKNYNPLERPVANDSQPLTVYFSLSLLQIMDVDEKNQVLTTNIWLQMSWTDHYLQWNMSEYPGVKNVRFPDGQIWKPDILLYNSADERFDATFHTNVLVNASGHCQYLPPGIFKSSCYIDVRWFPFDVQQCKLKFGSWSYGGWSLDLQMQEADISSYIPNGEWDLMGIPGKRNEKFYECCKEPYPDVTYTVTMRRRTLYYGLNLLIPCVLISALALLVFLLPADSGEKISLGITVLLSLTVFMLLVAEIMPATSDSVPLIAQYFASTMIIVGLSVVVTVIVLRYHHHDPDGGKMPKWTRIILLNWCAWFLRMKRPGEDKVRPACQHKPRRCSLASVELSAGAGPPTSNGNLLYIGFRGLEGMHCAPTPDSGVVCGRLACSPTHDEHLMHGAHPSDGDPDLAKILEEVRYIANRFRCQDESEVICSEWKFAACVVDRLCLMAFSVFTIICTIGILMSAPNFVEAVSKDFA

Consider `c1cc2c(c(-c3nnc(N4CCN5CCC4CC5)o3)c1)OCO2` [Compound 1, 4-(5-Benzo[1,3]dioxol-4-yl-[1,3,4]oxadiazol-2-yl)-1,4-diaza-bicyclo[3.2.2]nonane fumaric acid salt], for which inhibition was half-maximal at 22 nM (IC50). This lies in the double-digit nanomolar range.

As usually defined, the IC50 is the midpoint of a concentration-inhibition curve. Lower therefore signals greater potency.

For the origin of these results see US20120238553A1 (priority 2009, published 2012).
